From ChEMBL document CHEMBL1149251, “Acetylcholinesterase inhibitory activity of scopolin and scopoletin discovered by virtual screening of natural products” (J Med Chem, 2004)

Tests used:
Rattus norvegicus [1] = test: Increase in extracellular acetylcholine at 1 uM in urethane anesthetized Sprague-Dawley rat nucleus accumbens; assay type: functional
Rattus norvegicus [2] = test: Increase in extracellular acetylcholine at 2 uM in urethane anesthetized Sprague-Dawley rat nucleus accumbens; assay type: functional
Acetylcholinesterase [3] = molecular target: T1, Acetylcholinesterase (Homo sapiens, UniProt P22303); test: Inhibition of AChE by microplate assay
T1 sequence (P22303 whole entry): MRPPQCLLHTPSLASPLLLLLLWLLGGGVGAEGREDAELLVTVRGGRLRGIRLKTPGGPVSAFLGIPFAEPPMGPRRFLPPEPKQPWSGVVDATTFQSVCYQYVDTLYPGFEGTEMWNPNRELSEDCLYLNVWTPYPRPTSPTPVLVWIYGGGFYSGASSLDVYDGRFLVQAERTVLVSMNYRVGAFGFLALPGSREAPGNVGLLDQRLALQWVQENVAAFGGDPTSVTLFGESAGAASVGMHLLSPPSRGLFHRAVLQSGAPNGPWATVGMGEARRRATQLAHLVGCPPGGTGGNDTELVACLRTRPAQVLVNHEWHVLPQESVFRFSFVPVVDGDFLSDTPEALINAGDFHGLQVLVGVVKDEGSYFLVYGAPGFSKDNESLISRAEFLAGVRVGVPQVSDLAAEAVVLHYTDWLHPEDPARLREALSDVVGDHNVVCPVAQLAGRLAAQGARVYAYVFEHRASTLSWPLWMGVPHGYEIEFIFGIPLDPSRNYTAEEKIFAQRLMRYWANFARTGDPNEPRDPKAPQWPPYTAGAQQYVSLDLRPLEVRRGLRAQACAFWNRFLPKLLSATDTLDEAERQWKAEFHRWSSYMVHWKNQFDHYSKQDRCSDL

Rattus norvegicus [4] = test: Increase in extracellular acetylcholine in urethane anesthetized Sprague-Dawley rat nucleus accumbens; assay type: functional
Rattus norvegicus [5] = test: Increase in extracellular acetylcholine in urethane anesthetized Sprague-Dawley rat nucleus accumbens at 2 umol relative to basal release; assay type: functional
Acetylcholinesterase [6] = molecular target: T1, Acetylcholinesterase; test: Inhibition of AChE at 1000 uM by microplate assay

SMILES	Activity (Rattus norvegicus [1])	Activity (Rattus norvegicus [2])	IC50 (Acetylcholinesterase [3]) [µM]	Activity (Rattus norvegicus [4])	Activity (Rattus norvegicus [5]) [%]	Activity (Acetylcholinesterase [3])	inhibition (Acetylcholinesterase [6]) [%]
COc1ccc2c3c1O[C@H]1C[C@@H](O)C=C[C@@]31CCN(C)C2 [GALANTAMINE]	1.78	1.68	–	–	–	–	–
COc1cc2ccc(=O)oc2cc1O [SCOPOLETIN]	–	–	169	1.74	170	–	–
COc1cc2ccc(=O)oc2cc1O[C@@H]1O[C@H](CO)[C@@H](O)[C@H](O)[C@H]1O [SCOPOLIN]	–	–	–	3.18	300	Dose-dependent effect	30.1
